Columns and labels:
[1] = test system: BRCA1-BRCT domain (His6-SUMO-BRCT2); test: fluorescence polarisation, tandem BRCT domains of BRCA1; assay type: binding, human
Protocol: Recombinant BRCT2 domain proteins were expressed as N-terminally HIS-SUMO tagged constructs from a modified pET15b vector in Escherichia coli BL21(DE3) host strain (Novagen). Cell pellets were re-suspended in lysis buffer containing 50 mM HEPES pH 7.5, 200 mM NaCl, 0.5 mM TCEP and supplemented with 10 U DNASE Turbo (ThermoFisher), then disrupted by sonication and the resulting lysate clarified by centrifugation at 40,000 × g for 60 min at 4 °C. The supernatant was applied to a 5 ml HiTrap TALON crude column (GE Healthcare, Little Chalfont, UK), washed first with buffer containing 50 mM HEPES pH 7.5, 1000 mM NaCl, 0.5 mM TCEP, followed by lysis buffer supplemented with 10 mM imidazole, with any retained protein then eluted by application of the same buffer supplemented with 250 mM imidazole. The eluted protein was concentrated before further purification by size exclusion chromatography.
(§1) For Fluorescence Polarisation experiments, a Superdex 75 16/60 size exclusion column (GE Healthcare) was used to purify the His6-SUMO-BRCT2 proteins to homogeneity in 25 mM HEPES pH 7.5, 200 mM NaCl, 1 mM EDTA, 0.25 mM TCEP, 0.02% (v/v) Tween-20.
(§2) Fluorescein-labelled peptides (Flu-RIF1pS2265 Flu-[…](pS)PKFKSSK, Flu-BRIP1pS990 Flu-[…](pS)PTFNKQT and Flu-H2AXpS140 Flu-[…](pS)QEY, where (pS) is phosphorylated Serine) (Peptide Protein Research Ltd, Bishops Waltham, UK) at a concentration of 200 nM, were incubated at room temperature with increasing concentrations of His6-SUMO-BRCT2 protein in 25 mM HEPES pH 7.5, 200 mM NaCl, 1 mM EDTA, 0.25 mM TCEP, 0.02% (v/v) Tween-20 in a black 96-well polypropylene plate (VWR, Lutterworth, UK). Incubation with Lambda phosphatase (NEB, Hitchin, UK) supplemented with 1 mM MnCl2 was used to remove the phosphorylation on the peptides. Fluorescence polarisation was measured in a CLARIOstar multimode microplate reader (BMG Labtech GmbH, Offenburg, Germany). Binding curves represent the mean of 4 independent experiments, with error bars of 1 standard deviation. […]

[2] = test system: tandem BRCT domains of 53BP1; test: fluorescence polarisation, tandem BRCT domains of 53BP1; assay type: binding; conditions: peptide 200 nM, 25 mM HEPES pH 7.5, 200 mM NaCl
Protocol: (§3) Recombinant BRCT2 domain proteins were expressed as N-terminally HIS-SUMO tagged constructs from a modified pET15b vector in Escherichia coli BL21(DE3) host strain (Novagen). Cell pellets were re-suspended in lysis buffer containing 50 mM HEPES pH 7.5, 200 mM NaCl, 0.5 mM TCEP and supplemented with 10 U DNASE Turbo (ThermoFisher), then disrupted by sonication and the resulting lysate clarified by centrifugation at 40,000 × g for 60 min at 4 °C. […]
as §1
as §2, with “Incubation with Lambda phosphatase (NEB, Hitchin, UK) supplemented with 1 mM MnCl2 was used to remove the phosphorylation on the peptides.” left out, “Germany).” for “Germany). Binding curves represent the mean of 4 independent experiments, with error bars of 1 standard deviation.”

[3] = test system: tandem BRCT domains of MDC1; test: fluorescence polarisation, tandem BRCT domains of MDC1; assay type: binding; conditions: peptide 200 nM, 25 mM HEPES pH 7.5, 200 mM NaCl
Protocol: as §3, §1
as §2, with “Incubation with Lambda phosphatase (NEB, Hitchin, UK) supplemented with 1 mM MnCl2 was used to remove the phosphorylation on the peptides.” left out, “Germany).” for “Germany). Binding curves represent the mean of 4 independent experiments, with error bars of 1 standard deviation.”

[4] = test system: tandem BRCT domains of TOPBP1; test: fluorescence polarisation, tandem BRCT domains of TOPBP1; assay type: binding; conditions: peptide 200 nM, 25 mM HEPES pH 7.5, 200 mM NaCl
Protocol: as §3, §1
as §2, with “Incubation with Lambda phosphatase (NEB, Hitchin, UK) supplemented with 1 mM MnCl2 was used to remove the phosphorylation on the peptides.” left out, “Germany).” for “Germany). Binding curves represent the mean of 4 independent experiments, with error bars of 1 standard deviation.”

## Flu-GYGFLSPGSR(pS)PKFKSSK [RIF1-L phosphoS^2265PKF peptide, fluorescein-labelled RIF1-L-derived phosphopeptide]
[1]; fluorescein-labelled peptide 200 nM, 25 mM HEPES pH 7.5, 200 mM NaCl, room temperature, mean of 4 independent experiments
  binding to BRCA1-BRCT: bound strongly
[1]; peptide 200 nM, 25 mM HEPES pH 7.5, 200 mM NaCl
  interaction affinity relative to BRIP1 phospho-peptide: comparable to that for a phospho-peptide from BRIP1
[1]; peptide treated with Lambda phosphatase, 1 mM MnCl2
  binding to BRCA1-BRCT after λ phosphatase: abolished binding
[2]
  binding to tandem BRCT domains of 53BP1: did not bind
[3]
  binding to tandem BRCT domains of MDC1: did not bind
[4]
  binding to tandem BRCT domains of TOPBP1: did not bind

Reference: paper PMC12214830, “The human RIF1-Long isoform interacts with BRCA1 to promote recombinational fork repair under DNA replication stress” (Nature Communications, 2025)
